In patent US20120225889A1, “USE OF MACROCYCLIC LACTONE DERIVATIVES FOR THE TREATMENT OF INFLAMMATORY DISORDERS” (PIRAMAL LIFE SCIENCES LIMITED, priority 2010, published 2012):

Key:
IL-6 = test: Synovial tissue assay (spontaneous production): IL-6; type: cell-based; conditions: Homo sapiens, synovial tissue cells from rheumatoid arthritis patients, 16 h, read-out: IC50 of IL-6 inhibition
Source text: The ability of compounds of the present invention to inhibit spontaneous production of cytokines from freshly isolated human synovial tissue cells was designed as in reference, Lancet, 29, 244-247, (1989) the disclosure of which is incorporated by reference for the teaching of the assay.
Synovial tissue was obtained from rheumatoid arthritis patients undergoing knee replacement surgery. […] Subsequently, the cells were washed 3 times with RPMI 1640 culture medium and resuspended in complete medium (RPMI 1640 culture medium supplemented with 5% FBS and 5% human serum-AB+(Sigma, USA) at a concentration of 1×10^6 cells/mL. The viability of synovial cells was determined by trypan blue dye exclusion and was uniformly ≧98%. For the experiment, 100 μL of cell suspension was added to the wells of a 96-well culture plate (Nunc, USA). Following cell plating, 100 μL of the culture medium and 1 μL of various concentrations of the test compound (test compound was dissolved in DMSO to obtain a stock solution of 20 mM. […] The IC50 values were calculated by a nonlinear regression method using the GraphPad software (Prism 3.03).

TNF-α = test: hPBMC membrane-monocyte contact bioassay: TNF-α; type: cell-based, human; conditions: activated hPBMC membranes, 24 h
Source text: The assay was designed as in reference, Immunology Letters, 117, 114-118, (2008), the disclosure of which is incorporated by reference for the teaching of the assay. Activated T cell contact-mediated monocyte activation, leading to the production of proinflammatory cytokines (e.g., TNF-α, IL-6), contributes to the pathogenesis of chronic inflammatory diseases including rheumatoid arthritis.
6-well plates (Nunc, USA) were coated with Goat anti-Mouse IgG, Fc (Chemicon, USA) at a concentration of 16.5 μL/mL in coating buffer ([…] NaHCO3, 3.56 g Na2CO3, pH 9.5).
The plates were incubated overnight at 4° C. under sterile conditions. […]
Following incubation, hPBMCs in separate wells of the 6-well plate were harvested, pooled together, and centrifuged. […] The pellet of hPBMC membranes was resuspended in lysis buffer (Sigma, USA) and the protein concentration was determined by the method of Bradford (Sigma, USA).
100 μL monocytes per well at 5×10^5 cells/mL were added to the 96-well plate (Nunc, USA) and cultured for 48 h at 37° C. […] Supernatants were collected after 24 h and TNF-α and IL-6 production was measured using OptiEIA ELISA sets, (BD BioSciences, USA). […]

Compound: C/C=C/C(O)C(C)/C=C/C(=N\O)C(C)C(O)C(C)C1OC(=O)/C(OC)=C/C(C)=C/C(C)C(O)C(CC)C(O)C(C)C/C(C)=C/C=C/C1OC (centres unmarked) [Compound of example 7, (3Z,5E,13E,15E)-18-((5Z,6E,10E)-3,9-Dihydroxy-5-(hydroxymino)-4,8-dimethyldodeca-6,10-dien-2-yl)-9-ethyl-8,10-dihydroxy-3,17-dimethoxy-5,7,11,13-tetramethyl oxacyclooctadeca-3,5,13,15-tetraen-2-one]
- IC50 (IL-6): 300 nM
- inhibition of TNF-α production from monocytes (TNF-α): did not inhibit
